Our source for the EC50 and IC50 values is ChEMBL document CHEMBL1143261, “Enantioselective actions of 4-amino-3-hydroxybutanoic acid and (3-amino-2-hydroxypropyl)methylphosphinic acid at recombinant GABA(C) receptors” (Bioorg Med Chem Lett, 2008).

By EC50 is commonly meant the concentration giving half of the maximal effect. For orientation: IC50 means the point on the concentration scale where inhibition reaches its midpoint.

Structures are written as SMILES.

For one assay, the target named is T1, Gamma-aminobutyric acid receptor subunit rho-1 (Homo sapiens, UniProt P24046). Kind of assay: Agonist activity at human recombinant GABAc rho1 receptor expressed in Xenopus laevis oocytes at -60mV by two-electrode voltage clamp method. The format is functional, cell-based, Oocyte.
T1 sequence (P24046 whole entry): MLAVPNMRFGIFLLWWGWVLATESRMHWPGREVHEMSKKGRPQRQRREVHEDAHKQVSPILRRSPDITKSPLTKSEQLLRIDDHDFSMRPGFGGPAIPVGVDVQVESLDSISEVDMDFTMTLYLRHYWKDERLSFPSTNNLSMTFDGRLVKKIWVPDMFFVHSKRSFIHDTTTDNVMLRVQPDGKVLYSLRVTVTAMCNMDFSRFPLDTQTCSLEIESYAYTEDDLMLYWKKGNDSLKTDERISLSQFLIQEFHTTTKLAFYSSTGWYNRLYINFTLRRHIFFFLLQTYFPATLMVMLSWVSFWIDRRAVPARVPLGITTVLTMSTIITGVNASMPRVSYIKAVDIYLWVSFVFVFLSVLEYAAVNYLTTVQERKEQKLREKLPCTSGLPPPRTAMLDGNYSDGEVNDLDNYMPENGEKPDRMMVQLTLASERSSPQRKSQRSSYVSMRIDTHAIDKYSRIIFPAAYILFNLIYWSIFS
Take `C[C@@H](CCN)C(=O)O`: the EC50 was found to be 65 µM.

Regarding `NC[C@H](O)CC(=O)O`, the EC50 turned out to be 19.1 µM.

For `NC[C@@H](O)CC(=O)O`, the EC50 stood at 44.8 µM.

A further assay addresses T1, Gamma-aminobutyric acid receptor subunit rho-1. Kind of assay: Antagonist activity at human recombinant GABAc rho1 receptor expressed in Xenopus laevis oocytes at -60mV by two-electrode voltage clamp method. The format is functional, cell-based, Oocyte.
For `CP(=O)(O)C[C@H](O)CN`, the IC50 amounted to 5.4 µM.

Turning to `CP(=O)(O)C[C@@H](O)CN`, the IC50 came to 17.1 µM.

`C[C@H](CCN)C(=O)O`: the IC50 was determined as 16 µM.
